We go through one compound from US20140200210A1, “PHARMACEUTICAL COMPOSITION FOR TREATING PREMATURE EJACULATION AND METHOD FOR TREATING PREMATURE EJACULATION” (CTC BIO, INC., priority 2011, published 2014).

Counter-ions that a name gives are not always drawn.

In the experiment the test system is male patients suffering from premature ejaculation. The experiment is described as follows: Phase 2b clinical study, effect evaluation: intravaginal ejaculation latency time (IELT). The experiment is classed as in vivo, human.

Source text: Male patients suffering from premature ejaculation were subject to the following parallel clinical study (Phase 2b) (randomized, double-blind, placebo-controlled and fixed dose study) for evaluating tolerance and determining a proper therapeutic capacity.
• Subjects who passed screening entered a 4-week run-in period, and were randomized in 1:1:1 ratio of 2 groups with clomipramine and 1 group with placebo and subject to a double blind experiment. […] Each subject visited the hospital after taking the test drugs for 4 weeks by on-demand therapy.
Group 0 was administered with a tablet of 15 mg placebo and a tablet of 30 mg placebo, Group 1 was administered with a tablet of 15 mg clomipramine HCl and a tablet of 30 mg placebo, and Group 2 was administered with a tablet of 30 mg clomipramine HCl and a tablet of 15 mg placebo for 4 weeks on-demand at about 2 hours to 6 hours prior to sexual activity. The tablets were orally taken with a glass of water.
Primary effectiveness evaluation variables in this clinical study include an IELT fold change at visit 3 (measuring between 0 and 4 weeks) relative to baseline values (i.e., IELT fold change=Value of IELT measured at visit 3 (0 to 4 weeks)/Value of IELT measured at baseline) in each of Group 0 (with treatment of placebo), Group 1 (with treatment of 15 mg clomipramine HCl) and Group 2 (with treatment of 30 mg clomipramine HCl). […]
(1) After administering placebo and 15 mg of clomipramine, and placebo and 30 mg of clomipramine for the period of 4 weeks, a change (%) of IELT values between 0 to 4 weeks after administration, relative to before administration, was calculated by the equation [Change (%) of IELT Values=(Value of IELT measured at 0 to 4 weeks−Value of IELT measured at baseline)×100/Value of IELT measured at baseline].
(2) After administering placebo and 15 mg of clomipramine, and placebo and 30 mg of clomipramine for the period of 4 weeks, a mean change of IELT values between 0 to 4 weeks after administration was calculated. […]

For `CN(C)CCCN1c2ccccc2CCc2ccc(Cl)cc21` [clomipramine, clomipramine hydrochloride], the minimum effective dose worked out at 30 mg (case of ITT1); 15 mg (cases of ITT2 and ITT3); 15 mg (considering overall situations).
